Biological target: T1, Mushroom tyrosinase (Agaricus bisporus, UniProt C7FF04)
Assay: Mushroom tyrosinase inhibitory assay (spectrophotometric, L-tyrosine substrate)
Assay type: biochemical
Settings: qualitative statement; comparison with positive control kojic acid where stated
Protocol: The compounds were firstly dissolved in DMSO at a concentration of 1.0 mg/mL and then diluted to different concentrations with DMSO. […] The reaction mixtures (3.0 mL) were vortexed and the initial absorbance at 492 nm was measured. After incubation for 20 min at 37 °C, the final absorbance at the same wavelength was taken. […] B1 is the absorbance at 492 nm of test sample at 0 min, B2 is the absorbance at 492 nm of test sample at 20 min.

T1 sequence (G1K3P4 entry or part of it): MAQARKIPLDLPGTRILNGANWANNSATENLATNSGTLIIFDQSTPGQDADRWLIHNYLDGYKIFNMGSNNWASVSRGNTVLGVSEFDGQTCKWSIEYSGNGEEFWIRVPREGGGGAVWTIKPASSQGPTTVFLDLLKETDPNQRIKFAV
T1 sequence (C7FF04 1-392): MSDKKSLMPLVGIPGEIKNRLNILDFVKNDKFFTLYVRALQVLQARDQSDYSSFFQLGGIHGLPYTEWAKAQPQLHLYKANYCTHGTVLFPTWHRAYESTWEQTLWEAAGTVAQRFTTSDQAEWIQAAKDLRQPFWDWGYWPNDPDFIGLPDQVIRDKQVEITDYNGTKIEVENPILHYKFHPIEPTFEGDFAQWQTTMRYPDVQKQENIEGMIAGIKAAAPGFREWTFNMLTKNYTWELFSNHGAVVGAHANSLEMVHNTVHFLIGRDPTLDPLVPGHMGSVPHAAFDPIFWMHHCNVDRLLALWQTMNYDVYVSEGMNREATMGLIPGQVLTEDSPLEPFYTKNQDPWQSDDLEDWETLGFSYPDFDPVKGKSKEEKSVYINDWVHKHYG

SMILES	Mushroom tyrosinase inhibitory activity, result in words
Oc1cc(O)cc(-c2cc3ccc(O)cc3o2)c1 [Moracin M (14), moracin M]	much stronger
Oc1cc(O)cc(/C=C/c2ccc(O)cc2O)c1 [Oxyresveratrol (5), oxyresveratrol]	much stronger
CC(C)=CCc1c(O)ccc(C(=O)/C=C/c2ccc(O)cc2O)c1O [Morachalcone A (4), morachalcone A]	much stronger
O=C(/C=C/c1ccc(O)cc1O)c1ccc(O)cc1O [2,4,2′,4′-Tetrahydroxychalcone (3), 2,4,2′,4′-Tetrahydroxychalcone]	much stronger
O=C1CC(c2ccc(O)cc2O)Oc2cc(O)cc(O)c21 (stereo not shown) [Steppogenin (2), steppogenin]	much stronger
C=C(C)C(=O)Cc1c(-c2ccc(O)cc2O)oc2c3c(cc(O)c2c1=O)OC(C)(C)C=C3 [Morusone (1), 2-(2,4-dihydroxyphenyl)-5-hydroxy-8,8-dimethyl-3-(3-methyl-2-oxo-but-3-enyl)-8H-pyrano[2,3-f]chromen-4-one]	weak

Biological target: T1, Mushroom tyrosinase
Assay: not given
Design: method as in PMID 26616992
Settings: single resorcinol derivatives, weak activity; read-out: Tyrosinase inhibitory activity IC50; cited from earlier work

SMILES	IC50 [µM]
CC(=O)c1ccc(O)cc1O [2,4-dihydroxyacetophenone]	> 200
